In publication PMC11591356, “Immunomodulatory Effects of the Tobacco Defensin NaD1” (Antibiotics, 2024):
Several values for one entry are separate records, joined by “and”; a condition that tells them apart may be missing. Equal values may be shown once. Ends that are not written are not given here.

Assays:
[1] = system: Caco-2 polarized monolayer; assay: Caco-2 permeability assay, bidirectional transport; format: in vitro ADME, human; settings: Caco-2 polarized monolayer (21 days, TEER > 400 Ω cm^2), 5 µM FITC-labeled NaD1, HBSS transfer buffer pH 7.4, 90 min
Method: Caco-2 (ATCC HTB-37) cells were thawed and cultured in complete DMEM/F-12 culture medium (Corning), supplemented with 10% FBS in a humidified CO2-intubator. After the culture was subcultivated three times, the cells were seeded on cell inserts (PET, 0.4 μm, 0.6 cm^2 surface area, SPL Life Sciences, Pocheon-si, Republic of Korea) at a density of 2.5 × 10^5 cells/cm^2. Cells were grown for 21 days with re-feeding with the fresh medium every 2–3 days. To evaluate integrity of Caco-2 monolayer, a transepithelial electrical resistance (TEER) was measured by Millicell ERS-2 Voltohmmeter (Merck-Millipore, Burlington, MA, USA). Only inserts with TEER > 400 Ω cm^2 were used in the transport assay.
The permeability assay was conducted in transfer buffer (HBSS solution, containing 1 mM CaCl2, 1 mM MgCl2, 10 mM D(+)glucose, pH 7.4). […]
The apparent permeability coefficients (Papp) were calculated for each insert according to the following equation: Papp = dQ/dt × (1/(A × C0)), where dQ/dt is an amount of product present in the basolateral or apical chamber as a function of time (nM/s), A is an area of the insert (in cm^2) and C0 is an initial concentration of NaD1 in the apical or basolateral chamber (nM/mL). […]

[2] = system: immature monocyte-derived dendritic cells (moDC); assay: Multiplex xMAP assessment of cytokine production by immature monocyte-derived dendritic cells; format: cell-based, human
Method: Immature monocyte-derived dendritic cells (moDC) were obtained from primary monocytes by a differentiation protocol involving a cytokine cocktail with IL-4 and GM-CSF [38]. For this, the monocytes were cultured in complete RPMI-1640 containing 10% HS, 1×AA solution, 500 U/mL rhIL-4 (Sci-Store, Moscow, Russia) and 800 U/mL rhGM-CSF (Sci-Store) for 3 days. Then, the cells were re-fed with the fresh medium with rhIL-4 and rhGM-CSF and cultured for 4 more days.
For the study of the immunomodulatory properties of NaD1, monocytes and immature dendritic cells (moDC) were seeded into the wells of a 24-well plate at densities of 4 × 10^5 and 1.3 × 10^5 cells per well, respectively, in complete RPMI-1640 with 10% HS and AA solution. Then, 24 h later, the culture medium was replaced by a fresh one either with 2 μM NaD1 for stimulation of the cells or without if for the control wells. The cultures were kept in a humidified CO2-intubator for 24 h and then the samples of the culture media were taken and frozen.
The absolute levels of 48 cytokines, chemokines and growth factors were determined at a protein level by multiplex xMAP technology (Luminex, Austin, TX, USA). For this, a MILLIPLEX Human Panel A kit (HCYTA-60K-PX48, Merck, Darmstadt, Germany) was used and the following 48 analytes were evaluated in two biological replications: sCD40L, EGF, CCL11/Eotaxin-1, FGF-basic/FGF-2, Flt-3 ligand, CX3CL1/Fractalkine, G-CSF, GM-CSF, GROα, IFNα2, IFN-γ, IL-1α, IL-1β, IL-1RA, IL-2, IL-3, IL-4, IL-5, IL-6, IL-7, CXCL8/IL-8, IL-9, IL-10, IL-12(p40), IL-12(p70), IL-13, IL-15, IL-17A/CTLA8, IL-17E/IL-25, IL-17F, IL-18, IL-22, IL-27, CXCL10/IP-10, CCL2/MCP-1, CCL7/MCP-3, M-CSF, CCL22/MDC, CXCL9/MIG, CCL3/MIP-1α, CCL4/MIP-1β, PDGF-AA, PDGF-AB/BB, CCL5/RANTES, TGF-α, TNF-α, TNF-β and VEGF-A. The fluorescent data were obtained on a MAGPIX system (Merck) operated with xPONENT 4.2 software (Merck). Final analysis was performed in MILLIPLEX Analyst v5.1 software (Merck).

[3] = system: human dermal fibroblast cells (AHDF); design: method as in PMID 28179997; settings: read-out: IC50, MTT cell viability assay; cited from earlier work

For “NaD1: Recombinant tobacco floral defensin NaD1 (UNIPROT Q8GTM0), obtained by heterologous expression in E. coli; FITC-labeled in the permeability assay (RECKTESNTFPGICITKPPCRKACISEKFTDGHCSKILRRCLCTKPC; cysteine pairing not given here; also: FITC label; UniProt Q8GTM0 26-72, looked up)”, the “Apparent permeability coefficient Papp, A→B (absorptive)” value ([1]; apical to basolateral, mean of 6 independent inserts) was 2.72 ×10⁻⁶ cm/s, the “Apparent permeability coefficient Papp, B→A (secretory)” value ([1]; basolateral to apical, mean of 4 independent inserts) was 2.22 ×10⁻⁶ cm/s and the sCD40L absolute level ([2]; immature moDCs + 2 μM NaD1, 24 h, two biological replications, untreated control 116.89) was 92.12 pg/mL. For the same substance, the IL-2 absolute level ([2]; moDCs + 2 μM NaD1, 24 h, control 0.51) was <0.35↓ pg/ml, the IFNg absolute level ([2]; moDCs + 2 μM NaD1, 24 h, control 0.81) was <0.61↓ pg/ml and the IL-18 absolute level ([2]; moDCs + 2 μM NaD1, 24 h, control 1.17) was 0.78 pg/mL. For the same substance, the IL-10 absolute level ([2]; moDCs + 2 μM NaD1, 24 h, control 1.76) was <1.29↓ pg/ml, the IL-6 absolute level ([2]; moDCs + 2 μM NaD1, 24 h, control 1.92) was 0.85 pg/mL and the IL-9 absolute level ([2]; moDCs + 2 μM NaD1, 24 h, control 2.31) was 0.83 pg/mL. It also gave an IP-10 absolute level ([2]; moDCs + 2 μM NaD1, 24 h, control 2.51) of 2.51 pg/mL, a GM-CSF absolute level ([2]; moDCs + 2 μM NaD1, 24 h, control 3.8) of 2.87 pg/mL and an IL-4 absolute level ([2]; moDCs + 2 μM NaD1, 24 h, control 4.21) of 4.38 pg/mL. The GROa absolute level ([2]; moDCs + 2 μM NaD1, 24 h, control 5.3) was 2.88 pg/mL, the EGF absolute level ([2]; moDCs + 2 μM NaD1, 24 h, control 5.38) was 3.12 pg/mL and the TGF-a absolute level ([2]; moDCs + 2 μM NaD1, 24 h, control 6.04) was 4.68 pg/mL. The “IL-12 (p40) absolute level” value ([2]; moDCs + 2 μM NaD1, 24 h, control 6.14) was <2.07↓ pg/ml, the G-CSF absolute level ([2]; moDCs + 2 μM NaD1, 24 h, control 6.59) was 6.59 pg/mL and the IL-13 absolute level ([2]; moDCs + 2 μM NaD1, 24 h, control 10.99) was <2.24↓ pg/ml. For the same substance, the IL-1b absolute level ([2]; moDCs + 2 μM NaD1, 24 h, control 12.11) was 5.8 pg/mL, the IL-1a absolute level ([2]; moDCs + 2 μM NaD1, 24 h, control 12.13) was 15.76 pg/mL and the IFNa2 absolute level ([2]; moDCs + 2 μM NaD1, 24 h, control 13.22) was 7.1 pg/mL. The PDGF-AA absolute level ([2]; moDCs + 2 μM NaD1, 24 h, control 14.68) was 12.15 pg/mL, the Fractalkine absolute level ([2]; moDCs + 2 μM NaD1, 24 h, control 26.94) was 20.9 pg/mL and the TNFa absolute level ([2]; moDCs + 2 μM NaD1, 24 h, control 45.9) was 30.64 pg/mL. It also gave an MCP-3 absolute level ([2]; moDCs + 2 μM NaD1, 24 h, control 62.22) of 44.12 pg/mL, an MIP-1a absolute level ([2]; moDCs + 2 μM NaD1, 24 h, control 62.72) of 35.36 pg/mL and an MIG absolute level ([2]; moDCs + 2 μM NaD1, 24 h, control 76.28) of 16.72 pg/mL. It also gave an FGF-2 absolute level ([2]; moDCs + 2 μM NaD1, 24 h, control 78.9) of 71.22 pg/mL, an IL-27 absolute level ([2]; moDCs + 2 μM NaD1, 24 h, control 80.06) of 68.79 pg/mL and a M-GSF absolute level ([2]; moDCs + 2 μM NaD1, 24 h, control 101.68) of 45.07 pg/mL. For the same substance, the IL-1RA absolute level ([2]; moDCs + 2 μM NaD1, 24 h, control 199.63) was 133 pg/mL and 133.58 pg/mL, the MIP-1b absolute level ([2]; moDCs + 2 μM NaD1, 24 h, control 204.09) was 120 pg/mL and 120.19 pg/mL and the MCP-1 absolute level ([2]; moDCs + 2 μM NaD1, 24 h, control 514.13) was 288 pg/mL and 288.04 pg/mL. The MDC absolute level ([2]; moDCs + 2 μM NaD1, 24 h, control 1484) was 1278 pg/mL, the IL-8 absolute level ([2]; moDCs + 2 μM NaD1, 24 h, control 1856) was 1037 pg/mL and the IL-7 absolute level ([2]; moDCs + 2 μM NaD1, 24 h, control <0.32) was <0.32↓ pg/ml. For the same substance, the IL-5 absolute level ([2]; moDCs + 2 μM NaD1, 24 h, control <0.33) was <0.33↓ pg/ml, the FLT-3L absolute level ([2]; moDCs + 2 μM NaD1, 24 h, control <0.61) was <0.61↓ pg/ml and the RANTES absolute level ([2]; moDCs + 2 μM NaD1, 24 h, control <0.73) was <0.73↓ pg/ml. The IL-3 absolute level ([2]; moDCs + 2 μM NaD1, 24 h, control <0.77) was <0.77↓ pg/ml, the TNFb absolute level ([2]; moDCs + 2 μM NaD1, 24 h, control <0.78) was <0.78↓ pg/ml and the IL-17A absolute level ([2]; moDCs + 2 μM NaD1, 24 h, control <1.00) was <1.00↓ pg/ml. For the same substance, the VEGFa absolute level ([2]; moDCs + 2 μM NaD1, 24 h, control <1.44) was <1.44↓ pg/ml, the “IL-12 (p70) absolute level” value ([2]; moDCs + 2 μM NaD1, 24 h, control <1.79) was <1.79↓ pg/ml and the IL-15 absolute level ([2]; moDCs + 2 μM NaD1, 24 h, control <1.84) was <1.84↓ pg/ml. For the same substance, the Eotaxin absolute level ([2]; moDCs + 2 μM NaD1, 24 h, control <3.80) was <3.80↓ pg/ml, the PDGF-AB/BB absolute level ([2]; moDCs + 2 μM NaD1, 24 h, control <5.75) was <5.75↓ pg/ml and the IL-22 absolute level ([2]; moDCs + 2 μM NaD1, 24 h, control <9.00) was <9.00↓ pg/ml. The IL-17F absolute level ([2]; moDCs + 2 μM NaD1, 24 h, control <16.98) was <16.98↓ pg/ml, the IL-17E/IL-25 absolute level ([2]; moDCs + 2 μM NaD1, 24 h, control <25.82) was <25.82↓ pg/ml and the IC50 [3] was roughly 10 µM.
